Measurements as given in US20250100995A1, “CEREBLON BINDING COMPOUNDS, COMPOSITIONS THEREOF, AND METHODS OF TREATMENT THEREWITH” (CELGENE CORPORATION, priority 2021, published 2025).

Target: T1, AR (Homo sapiens, UniProt P10275)
T1 construct: endogenous in cells; host or cells: VCaP cells
T1 sequence (P10275 1-920): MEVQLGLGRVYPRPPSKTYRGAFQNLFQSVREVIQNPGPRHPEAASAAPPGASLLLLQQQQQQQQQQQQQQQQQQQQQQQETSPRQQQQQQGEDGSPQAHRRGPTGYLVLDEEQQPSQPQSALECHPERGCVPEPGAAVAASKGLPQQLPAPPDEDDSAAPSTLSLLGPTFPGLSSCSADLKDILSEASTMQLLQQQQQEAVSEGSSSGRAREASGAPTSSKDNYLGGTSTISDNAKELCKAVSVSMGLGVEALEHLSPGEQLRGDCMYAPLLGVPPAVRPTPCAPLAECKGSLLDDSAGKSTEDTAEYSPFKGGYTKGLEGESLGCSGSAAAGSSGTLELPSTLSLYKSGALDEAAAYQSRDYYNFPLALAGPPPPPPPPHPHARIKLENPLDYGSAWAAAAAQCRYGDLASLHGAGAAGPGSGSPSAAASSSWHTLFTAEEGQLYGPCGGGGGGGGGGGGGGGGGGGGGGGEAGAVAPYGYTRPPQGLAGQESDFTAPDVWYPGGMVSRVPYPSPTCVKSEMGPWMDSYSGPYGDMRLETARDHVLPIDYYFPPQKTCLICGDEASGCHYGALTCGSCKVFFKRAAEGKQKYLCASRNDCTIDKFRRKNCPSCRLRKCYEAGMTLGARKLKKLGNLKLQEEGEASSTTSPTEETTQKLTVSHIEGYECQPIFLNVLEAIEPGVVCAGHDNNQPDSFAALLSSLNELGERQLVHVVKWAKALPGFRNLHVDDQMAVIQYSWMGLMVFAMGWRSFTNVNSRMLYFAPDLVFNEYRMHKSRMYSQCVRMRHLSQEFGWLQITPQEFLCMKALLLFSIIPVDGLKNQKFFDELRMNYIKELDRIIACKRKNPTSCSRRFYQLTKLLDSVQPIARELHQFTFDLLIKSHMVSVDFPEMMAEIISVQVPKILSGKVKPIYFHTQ
Experiment: VCAP AR Degradation Assay
Format: cell-based
Details: VCaP cells, 24 h, AR ELISA; for DC50: concentration of compound when AR level = 50% of DMSO control; for Y: lowest measured AR level normalized to DMSO control (AR degradation efficiency)
Protocol: VCAP AR Degradation Assay. Test compounds were pre-dispensed into a Corning CellBind 96-well clear bottom plate (Cat #3300) using an acoustic dispenser to make a 10-point concentration series at 1:3 dilution for each compound. The final top concentration of each compound was 5 μM. DMSO at a final concentration of 0.1% was used as a control. VCaP cells cultured in DMEM with 8% fetal bovine serum (FBS) were seeded at 50K cells per well in a 200 μL volume into the compound plate and incubated at 37° C. in a CO2 incubator for 24 h. The medium was carefully removed from the cells and the plate was placed on ice. One hundred μL of ice-cold 1× cell lysis buffer from Cell Signaling Technologies (Cat #9803) was added to each well of the cells and the plate was incubated at 4° C. on a shaker for 1 h. Fifteen μL of cell lysate was used for AR ELISA detection using a PathScan Total Sandwich AR ELISA kit (Cell Signaling Technology, Cat #12580). AR levels in compound-treated wells were normalized to that of DMSO control and expressed as percent of control (PoC) (y). A Four Parameter Logistic Model (Sigmoidal Dose-Response Model) was used to determine the compound's DC50, and EC50, using the following equation: […]
The lowest measured AR level normalized to DMSO control in response to compound treatment, termed Y value, was used to characterize the compound-mediated AR degradation efficiency.

Structure (SMILES)	DC50 [nM]	Y
C[C@@H]1C[C@H](OCCO[C@H]2CC[C@H](N3C(=S)N(c4ccc(C#N)c(C(F)(F)F)c4)C(=O)C3(C)C)CC2)C[C@H](C)N1CC(=O)Nc1cc(C2CCC(=O)NC2=O)ccn1 (stereo partly drawn) [Cmpd 29, 2-((2R,4r,6S)-4-(2-(((trans)-4-(3-(4-Cyano-3-(trifluoromethyl)phenyl)-5,5-dimethyl-4-oxo-2-thioxoimidazolidin-1-yl)cyclohexyl)oxy)ethoxy)-2,6-dimethylpiperidin-1-yl)-N-(4-(2,6-dioxopiperidin-3-yl)pyridin-2-yl)acetamide]	5 to 50	** (20%<Y≤40%)
C[C@@H]1C[C@H](OCC[C@H]2CC[C@H](N3C(=S)N(c4cnc(C#N)c(C(F)(F)F)c4)C(=O)C3(C)C)CC2)C[C@H](C)N1CC(=O)Nc1cc(C2CCC(=O)NC2=O)ccn1 (stereo partly drawn) [Cmpd 30, 2-((2R,4r,6S)-4-(2-((trans)-4-(3-(6-Cyano-5-(trifluoromethyl)pyridin-3-yl)-5,5-dimethyl-4-oxo-2-thioxoimidazolidin-1-yl)cyclohexyl)ethoxy)-2,6-dimethylpiperidin-1-yl)-N-(4-(2,6-dioxopiperidin-3-yl)pyridin-2-yl)acetamide]	5 to 50	* (0<Y≤20%)
